Laboratory results published in patent publication US12344603B2 (Genentech, Inc., priority 2020, dated 2025).
Structures can show the parent of a compound that is named as a salt.

Molecular target: IRE1α (Homo sapiens (Human), UniProt O75460, D688N)
Assay: IRE1α TR-FRET competition binding assay (IRE1α HTRF)
Details: TR-FRET competition binding to kinase domain of IRE1α
Procedure: IRE1α TR-FRET Competition Binding Assay. The affinity of compound binding to the kinase domain of IRE1α was determined using a time-resolved fluorescence resonance energy transfer (TR-FRET) competition assay.
The purified protein (final concentration 0.25 nM) was pre-incubated with anti-His Europium labeled antibody (Life Technologies PV5596, final concentration 2 nM) for one hour at 4° C. in TR-FRET Assay Buffer (50 mM HEPES, pH 7.5, 10 mM MgCl2, 0.083 mM Brij 35, 1 mM DTT, and 0.1% bovine gamma globulin) prior to addition to test compounds. An Alexa fluor 647-labeled probe based on an ATP competitive inhibitor was added to a final concentration of 2 nM. Reactions were carried out for one hour at room temperature in a final volume of 20 μL in 384 well white ProxiPlates (Perkin Elmer 6008289). Binding of the probe to the IRE1α protein was detected in an Envision instrument (PerkinElmer) equipped with a TRF laser option and a LANCE/Delfia Dual/Bias D400/D630 mirror (Ex 347 nm, 1st Em 665 nm, 2nd Em 615 nm).

Chain of IRE1α (O75460 547-977 D688N): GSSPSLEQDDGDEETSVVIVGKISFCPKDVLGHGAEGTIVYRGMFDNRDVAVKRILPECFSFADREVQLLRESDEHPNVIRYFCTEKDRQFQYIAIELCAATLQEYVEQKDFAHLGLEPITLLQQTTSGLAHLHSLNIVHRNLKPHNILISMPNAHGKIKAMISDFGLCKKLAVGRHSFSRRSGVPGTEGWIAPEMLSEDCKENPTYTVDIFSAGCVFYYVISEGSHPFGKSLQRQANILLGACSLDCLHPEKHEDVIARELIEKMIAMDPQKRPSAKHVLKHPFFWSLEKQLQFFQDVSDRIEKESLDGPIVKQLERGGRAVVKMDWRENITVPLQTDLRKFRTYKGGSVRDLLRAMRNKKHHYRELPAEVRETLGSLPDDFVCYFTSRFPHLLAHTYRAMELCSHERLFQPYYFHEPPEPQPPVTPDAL

`CC(C)n1c(=O)c(-c2cc(F)c(NS(=O)(=O)Cc3ccccc3)c(F)c2)cc2cnc(N[C@H]3CC[C@H](N(C)C)CC3)nc21` [Compound 117, N-(4-(2-(((1r,4r)-4-(Dimethylamino)cyclohexyl)amino)-8-isopropyl-7-oxo-7,8-dihydropyrido[2,3-d]pyrimidin-6-yl)-2,6-difluorophenyl)-1-phenylmethanesulfonamide] and `CC(C)n1c(=O)c(-c2cc(F)c(NS(=O)(=O)Cc3ccccc3)c(F)c2F)cc2cnc(N[C@H]3CC[C@H](N)CC3)nc21` [Compound 56, N-(4-(2-(((1r,4r)-4-Aminocyclohexyl)amino)-8-isopropyl-7-oxo-7,8-dihydropyrido[2,3-d]pyrimidin-6-yl)-2,3,6-trifluorophenyl)-1-phenylmethanesulfonamide] are within 1.5-fold of each other in IC50: 180 pM for the first, 170 pM for the second.

Compared with `CC(C)n1c(=O)c(-c2ccc(NS(=O)(=O)CCC(F)(F)F)c(F)c2)cc2cnc(NC3CCC4(CC3)CNC4)nc21` [Example 220, N-(4-(2-((2-azaspiro[3.5]nonan-7-yl)amino)-8-isopropyl-7-oxo-7,8-dihydropyrido[2,3-d]pyrimidin-6-yl)-2-fluorophenyl)-3,3,3-trifluoropropane-1-sulfonamide], `CC(C)n1c(=O)c(-c2ccc(NS(=O)(=O)CCC(F)(F)F)c(F)c2)cc2cnc(N[C@H]3CC[C@H](N(C)CC4CCO4)CC3)nc21` (stereo partly drawn) [Compound 209, 3,3,3-Trifluoro-N-(2-fluoro-4-(8-isopropyl-2-(((1,4-trans)-4-(methyl(oxetan-2-ylmethyl)amino)cyclohexyl)amino)-7-oxo-7,8-dihydropyrido[2,3-d]pyrimidin-6-yl)phenyl)propane-1-sulfonamide] is 26-fold lower in IC50: 5000 pM for the first, 190 pM for the second. The second is the more potent here.

Going from `CC(C)n1c(=O)c(-c2ccc(F)c(NS(=O)(=O)Cc3ccccc3)c2)cc2cnc(N[C@H]3CCCNC3)nc21` [Compound 17, (S)—N-(2-Fluoro-5-(8-isopropyl-7-oxo-2-(piperidin-3-ylamino)-7,8-dihydropyrido[2,3-d]pyrimidin-6-yl)phenyl)-1-phenylmethanesulfonamide hydrochloride] to `Cn1c(=O)c(-c2cc(F)c(NS(=O)(=O)Cc3ccccc3)c3ccccc23)cc2cnc(N[C@H]3CCCNC3)nc21` [Compound 6, (S)—N-(2-Fluoro-4-(8-methyl-7-oxo-2-(piperidin-3-ylamino)-7,8-dihydropyrido[2,3-d]pyrimidin-6-yl)naphthalen-1-yl)-1-phenylmethanesulfonamide], the IC50 falls from 11000 pM to 890 pM (12-fold). The second is the more potent here.

Going from `Cc1nc(NS(=O)(=O)c2ccccc2F)ccc1-c1cc2cnc(N[C@H]3CC[C@H](N(C)C)CC3)nc2n(C(C)C)c1=O` [Compound 140, N-(5-(2-(((1r,4r)-4-(Dimethylamino)cyclohexyl)amino)-8-isopropyl-7-oxo-7,8-dihydropyrido[2,3-d]pyrimidin-6-yl)-6-methylpyridin-2-yl)-2-fluorobenzenesulfonamide] to `Cc1nc(NS(=O)(=O)CCC(F)(F)F)ccc1-c1nc2cnc(N[C@H]3CC[C@H](N(C)C)CC3)nc2n(C(C)C)c1=O` [Example 251, N-[5-[2-[[4-(Dimethylamino)cyclohexyl]amino]-8-isopropyl-7-oxo-pteridin-6-yl]-6-methyl-2-pyridyl]-3,3,3-trifluoro-propane-1-sulfonamide], the IC50 rises from 300 pM to 7000 pM (23-fold).

Compared with `CC(C)n1c(=O)c(-c2cc(F)c(NC(=O)C3CC3)c(F)c2F)cc2cnc(N[C@H]3CC[C@H](N(C)C)CC3)nc21` [Compound 37, N-(4-(2-(((1r,4r)-4-(Dimethylamino)cyclohexyl)amino)-8-isopropyl-7-oxo-7,8-dihydropyrido[2,3-d]pyrimidin-6-yl)-2,3,6-trifluorophenyl)cyclopropanecarboxamide], `CC1CC1C(=O)Nc1c(F)cc(-c2cc3cnc(N[C@H]4CC[C@H](N(C)C)CC4)nc3n(C(C)C)c2=O)c(F)c1F` (stereo partly drawn) [Compound 58, (1S,2R)—N-(4-(2-(((1r,4r)-4-(dimethylamino)cyclohexyl)amino)-8-isopropyl-7-oxo-7,8-dihydropyrido[2,3-d]pyrimidin-6-yl)-2,3,6-trifluorophenyl)-2-methylcyclopropane-1-carboxamide] is 4.1-fold higher in IC50: 1400 pM for the first, 5700 pM for the second.

Going from `CC(C)n1c(=O)c(-c2cc(F)c(NS(=O)(=O)Cc3cccnc3C(F)(F)F)c(F)c2F)cc2cnc(N[C@@H]3CNC[C@@H](F)C3)nc21` [Compound 139, N-(2,3,6-Trifluoro-4-(2-(((3S,5S)-5-fluoropiperidin-3-yl)amino)-8-isopropyl-7-oxo-7,8-dihydropyrido[2,3-d]pyrimidin-6-yl)phenyl)-1-(2-(trifluoromethyl)pyridin-3-yl)methanesulfonamide] to `CCn1c(=O)c(-c2cc(F)c(NS(=O)(=O)CC3(F)CC3)c(F)c2F)cc2cnc(N[C@@H]3CNC[C@@H](F)C3)nc21` [Compound 48, N-(4-(8-ethyl-2-(((3S,5S)-5-fluoropiperidin-3-yl)amino)-7-oxo-7,8-dihydropyrido[2,3-d]pyrimidin-6-yl)-2,3,6-trifluorophenyl)-1-(1-fluorocyclopropyl)methanesulfonamide], the IC50 rises from 270 pM to 28000 pM (100-fold). The first is the more potent here.

First: Cc1cc(NS(=O)(=O)CCC(F)(F)F)ncc1-c1nc2cnc(N[C@H]3CC[C@H](N(C)C)CC3)nc2n(C(C)C)c1=O [Compound 186, N-(5-(2-(((1r,4r)-4-(Dimethylamino)cyclohexyl)amino)-8-isopropyl-7-oxo-7,8-dihydropteridin-6-yl)-4-methylpyridin-2-yl)-3,3,3-trifluoropropane-1-sulfonamide]
Second: CC(C)n1c(=O)c(-c2ccc(NS(=O)(=O)CC3CCC3)c(F)c2)nc2cnc(N[C@H]3CC[C@H](N(C)C)CC3)nc21 [Example 278, 1-Cyclobutyl-N-[4-[2-[[4-(dimethylamino)cyclohexyl]amino]-8-isopropyl-7-oxo-pteridin-6-yl]-2-fluoro-phenyl]methanesulfonamide]
The IC50 of the first is 4.8-fold higher: 950 pM for the first, 200 pM for the second. The second is the more potent here.

`O=c1c(-c2ccc(NS(=O)(=O)Cc3ccccc3)c(F)c2F)cc2cnc(N[C@@H]3CNC[C@@H](F)C3)nc2n1CC(F)F` [Compound 11, N-(4-(8-(2,2-Difluoroethyl)-2-(((3S,5S)-5-fluoropiperidin-3-yl)amino)-7-oxo-7,8-dihydropyrido[2,3-d]pyrimidin-6-yl)-2,3-difluorophenyl)-1-phenylmethanesulfonamide] and `O=c1c(-c2ccc(NS(=O)(=O)Cc3ccccc3)c(F)c2F)cc2cnc(N[C@@H]3CNC[C@@H](F)C3)nc2n1CC1CC1` [Compound 52, N-(4-(8-(cyclopropylmethyl)-2-(((3S,5S)-5-fluoropiperidin-3-yl)amino)-7-oxo-7,8-dihydropyrido[2,3-d]pyrimidin-6-yl)-2,3-difluorophenyl)-1-phenylmethanesulfonamide trifluoroacetate salt] are within 1.5-fold of each other in IC50: 1100 pM for the first, 800 pM for the second.

First: CC(C)n1c(=O)c(-c2ccc(NS(=O)(=O)CCC3CCC3)c(F)c2)cc2cnc(N[C@H]3CC[C@H](N(C)C)CC3)nc21 [Example 231, 2-cyclobutyl-N-(4-(2-(((1r,4r)-4-(dimethyl-amino)cyclohexyl)-amino)-8-isopropyl-7-oxo-7,8-dihydropyrido-[2,3-d]pyrimidin-6-yl)-2-fluorophenyl)ethane-1-sulfonamide]
Second: CC(C)n1c(=O)c(-c2c(F)cc(NS(=O)(=O)Cc3ccc(F)cc3)c(F)c2F)cc2cnc(N[C@H]3CC[C@H](N(C)C)CC3)nc21 [Compound 128, N-(4-(2-(((1r,4r)-4-(Dimethylamino)cyclohexyl)amino)-8-isopropyl-7-oxo-7,8-dihydropyrido[2,3-d]pyrimidin-6-yl)-2,3,5-trifluorophenyl)-1-(4-fluorophenyl)methanesulfonamide]
The IC50 of the first is 1.5-fold lower: 100 pM for the first, 150 pM for the second. The first is the more potent here.
